In PMC10454678, “Synthesis of hydroxy benzoin/benzil analogs and investigation of their antioxidant, antimicrobial, enzyme inhibition, and cytotoxic activities” (Turkish Journal of Chemistry, 2021):
Values after ≈ are worked out from the molar mass of the structure shown. Where two headings read alike, the source gives them in different places.

Experiments:
[1] = tested on: Pseudomonas aeruginosa ATCC27853; assay: MIC, microdilution, P. aeruginosa; type: cell-based; conditions: Gram (-), Mueller-Hinton broth, 18-24 h, 36 °C; for MIC: Pseudomonas aeruginosa, ATCC27853, read-out: MIC Pa
Bacillus cereus Roma709 = assay: MIC, microdilution, B. cereus; type: cell-based; conditions: for MIC: Bacillus cereus
butyrylcholinesterase = butyrylcholinesterase (Homo sapiens, UniProt P06276); assay: biochemical; conditions: Tris-HCl pH 8.0, 25 °C, 405 nm; for IC50: read-out: BChE IC50 (converted)
butyrylcholinesterase, sequence (P06276 29-602): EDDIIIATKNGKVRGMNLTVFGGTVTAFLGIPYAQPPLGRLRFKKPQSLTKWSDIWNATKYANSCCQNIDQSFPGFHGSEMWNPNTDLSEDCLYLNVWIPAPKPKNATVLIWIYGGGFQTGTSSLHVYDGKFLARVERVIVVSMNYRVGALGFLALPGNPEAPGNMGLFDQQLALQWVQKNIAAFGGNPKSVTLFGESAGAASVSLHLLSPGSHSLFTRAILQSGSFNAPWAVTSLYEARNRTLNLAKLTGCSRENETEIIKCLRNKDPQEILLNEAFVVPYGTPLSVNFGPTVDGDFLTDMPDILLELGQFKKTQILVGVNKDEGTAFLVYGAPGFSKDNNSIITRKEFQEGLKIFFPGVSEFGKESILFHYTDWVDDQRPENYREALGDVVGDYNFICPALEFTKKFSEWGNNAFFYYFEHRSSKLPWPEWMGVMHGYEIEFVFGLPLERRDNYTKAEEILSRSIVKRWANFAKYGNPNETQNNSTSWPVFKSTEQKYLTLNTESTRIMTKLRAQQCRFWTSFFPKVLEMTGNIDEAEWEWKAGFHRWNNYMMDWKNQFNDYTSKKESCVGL

[2] = tested on: Enterococcus faecalis ATCC29212; assay: MIC, microdilution, E. faecalis; type: cell-based; conditions: Gram (+), Mueller-Hinton broth, 18-24 h, 36 °C; for MIC: Enterococcus faecalis, ATCC29212, read-out: MIC Ef
[3] = tested on: Candida albicans ATCC60193; assay: MIC, microdilution, C. albicans; type: cell-based; conditions: fungus, YEPD broth, 48 h, 36 °C; for MIC: Candida albicans, ATCC60193, read-out: MIC Ca
[4] = Copper ions reducing activity (CUPRAC); conditions: Trolox equivalents; 30 min dark, room temperature, 450 nm
[5] = tested on: Streptococcus mutans RSKK07038; assay: MIC, microdilution, S. mutans; type: cell-based; conditions: Gram (+), BHI broth, 72 h, 36 °C; for MIC: Streptococcus mutans, RSKK07038, read-out: MIC Sm
[6] = tested on: Staphylococcus aureus ATCC25923; assay: MIC, microdilution, S. aureus; type: cell-based; conditions: for MIC: Staphylococcus aureus
acetylcholinesterase = acetylcholinesterase (Homo sapiens, UniProt P22303); assay: biochemical; conditions: Tris-HCl pH 8.0, 25 °C, 405 nm; for IC50: read-out: AChE IC50 (converted)
acetylcholinesterase, sequence (P22303 32-614, species assumed): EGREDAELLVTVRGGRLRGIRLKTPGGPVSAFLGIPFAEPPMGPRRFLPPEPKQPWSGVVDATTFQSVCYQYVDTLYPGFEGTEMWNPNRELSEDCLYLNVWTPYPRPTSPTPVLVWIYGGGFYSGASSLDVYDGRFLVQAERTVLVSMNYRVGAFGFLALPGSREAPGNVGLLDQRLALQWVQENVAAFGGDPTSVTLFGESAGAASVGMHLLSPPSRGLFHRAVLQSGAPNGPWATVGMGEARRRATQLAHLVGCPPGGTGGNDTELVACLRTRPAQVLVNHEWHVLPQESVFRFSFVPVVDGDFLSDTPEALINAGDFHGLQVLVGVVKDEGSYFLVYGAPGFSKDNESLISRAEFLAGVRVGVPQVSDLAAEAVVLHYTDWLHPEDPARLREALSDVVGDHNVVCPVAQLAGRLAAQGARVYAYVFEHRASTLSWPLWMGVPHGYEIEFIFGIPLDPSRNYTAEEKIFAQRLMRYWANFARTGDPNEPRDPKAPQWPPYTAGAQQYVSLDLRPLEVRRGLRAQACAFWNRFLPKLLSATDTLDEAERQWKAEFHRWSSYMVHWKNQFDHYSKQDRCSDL

[7] = Ferric reducing antioxidant power (FRAP) assay; conditions: Trolox equivalents, compounds 2 mg/mL, 30 °C 30 min, 595 nm
tyrosinase = tyrosinase (Agaricus bisporus, UniProt C7FF04); assay: Tyrosinase inhibition (dopachrome method); type: biochemical; conditions: L-DOPA substrate, pH 6.8, 25 °C, 492 nm
tyrosinase, sequence (C7FF04 1-392): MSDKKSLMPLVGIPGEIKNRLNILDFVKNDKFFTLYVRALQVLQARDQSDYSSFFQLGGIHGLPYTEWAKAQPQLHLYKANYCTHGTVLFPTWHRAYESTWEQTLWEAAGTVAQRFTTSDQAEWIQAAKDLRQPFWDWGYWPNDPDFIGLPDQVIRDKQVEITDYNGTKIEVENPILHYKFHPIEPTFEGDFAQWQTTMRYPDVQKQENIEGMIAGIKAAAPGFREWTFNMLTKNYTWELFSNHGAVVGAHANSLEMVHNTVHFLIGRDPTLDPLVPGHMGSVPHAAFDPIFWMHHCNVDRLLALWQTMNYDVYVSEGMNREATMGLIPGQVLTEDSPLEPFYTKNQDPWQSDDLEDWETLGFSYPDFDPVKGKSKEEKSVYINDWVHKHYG

[8] = tested on: Escherichia coli ATCC 25922; assay: MIC, microdilution, E. coli; type: cell-based; conditions: for MIC: Escherichia coli
α-amylase = α-amylase (Sus scrofa, UniProt P00690); assay: α-Amylase inhibition (Caraway-Somogyi I2/KI method); type: biochemical; conditions: starch, pH 6.9, 37 °C, 630 nm
α-amylase, sequence (P00690 16-511): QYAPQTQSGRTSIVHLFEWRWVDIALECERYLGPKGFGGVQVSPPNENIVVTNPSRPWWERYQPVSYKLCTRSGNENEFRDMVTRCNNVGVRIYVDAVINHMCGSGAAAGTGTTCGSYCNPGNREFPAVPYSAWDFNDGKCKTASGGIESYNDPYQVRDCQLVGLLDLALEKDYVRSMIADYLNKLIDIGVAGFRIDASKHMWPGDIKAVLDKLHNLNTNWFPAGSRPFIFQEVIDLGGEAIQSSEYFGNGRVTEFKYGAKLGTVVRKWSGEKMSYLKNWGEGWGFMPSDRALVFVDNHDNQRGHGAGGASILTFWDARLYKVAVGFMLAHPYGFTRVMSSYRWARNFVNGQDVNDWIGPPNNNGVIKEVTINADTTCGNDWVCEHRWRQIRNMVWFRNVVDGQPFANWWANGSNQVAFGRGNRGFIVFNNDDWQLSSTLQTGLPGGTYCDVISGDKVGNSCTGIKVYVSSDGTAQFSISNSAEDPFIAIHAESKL

[9] = tested on: Mycobacterium smegmatis ATCC607; assay: MIC, microdilution, M. smegmatis; type: cell-based; conditions: Tub., BHI broth, 36 °C; for MIC Ms: 72 h; for MIC: Mycolicibacterium smegmatis, ATCC607, 72 h, read-out: MIC Ms
[10] = tested on: Yersinia pseudotuberculosis ATCC911; assay: microbe, parasite or virus in culture; type: cell-based; conditions: for MIC: Yersinia pseudotuberculosis, ATCC911, read-out: MIC Yp
α-glucosidase = assay: α-Glucosidase inhibition; type: biochemical; conditions: PNPG, pH 6.8, 37 °C, 400 nm
Method: It was incubated at 37 °C for 15 min. Similarly, an enzyme-free blank was prepared. The reaction was stopped when sodium carbonate (50 μL, 0.2 M) was added.

[11] = DPPH radical scavenging activity; conditions: 0.1 mM DPPH, 50 min dark, 517 nm
[12] = tested on: human retinal normal cell line (RPE); assay: MTT cell proliferation, RPE
[13] = tested on: human cervical cancer cell line (HeLa); assay: MTT cell proliferation, HeLa
[14] = tested on: Bacillus subtilis ATCC1266; assay: MIC, microdilution, B. subtilis; type: cell-based; conditions: Gram (+) nonpathogenic spore forming
[15] = tested on: Paenibacillus larvae DSM7030; assay: MIC, microdilution, P. larvae; type: cell-based; conditions: Gram (+) nonpathogenic spore forming
[16] = Gram (+), Mueller-Hinton broth, 18-24 h, 36 °C
[17] = Gram (-), Mueller-Hinton broth, 18-24 h, 36 °C
[18] = ATCC25922, Gram (-), Mueller-Hinton broth, 18-24 h, 36 °C, read-out: MIC Ec

Row | Compound | CUPRAC, copper reducing antioxidant power [4] | FRAP, the iron reducing antioxidant power [7] | α-Glucosidase IC50 (α-glucosidase) | DPPH radical scavenging capacity (SC50) [11] | IC50 (butyrylcholinesterase) | IC50 (acetylcholinesterase) | MIC [9] | MIC [15] | also measured
1 | 2-Hydroxy-1-(3,5-dihydroxyphenyl)-2-(3-hydroxyphenyl)ethanone and 2-Hydroxy-1-(3-hydroxyphenyl)-2-(3,5-dihydroxyphenyl)ethanone [6a+b] | 506.67 ± 17.3 μg/mL trolox/gram DW | 2237 ± 58.3 μg/mL trolox/gram DW | 76.53 µg/mL | 9.48 ± 0.3 mg/mL | – | – | – | – | MIC Pa [1]: 52 µg/mL; MIC Bc (Bacillus cereus Roma709; [16]): 24 µg/mL; BChE IC50 (butyrylcholinesterase): 592.92 µg/mL; MIC Ef [2]: 24 µg/mL; MIC Ca [3]: 103 µg/mL; MIC Sm [5]: 12 µg/mL; MIC Sa [6, 16]: 12 µg/mL; AChE IC50 (acetylcholinesterase): >1000 µg/mL; FRAP, the iron reducing antioxidant power ([7]; listed as 6): 2237±58.3 μg/mL trolox/gram DW; Tyrosinase IC50 (tyrosinase): 25.45 µg/mL; MIC Ec [8, 17]: 103 µg/mL; α-Amylase IC50 (α-amylase): 230.76 µg/mL; MIC Ms [9]: 12 µg/mL; MIC Yp [10, 17]: 103 µg/mL
2 | 2-Hydroxy-1-(3-O- β -D-glucopyranosylphenyl)-2-(3-hydroxyphenyl)-ethanone; 2-Hydroxy-1-(3-hydroxyphenyl)-2-(3-O- β -D-glucopyranosylphenyl)ethanone [18a+b] | 385.80 ± 37.12 μg/mL trolox/gram DW | 2743.75 ± 25.20 μg/mL trolox/gram DW | >1000 µg/mL | 12.11 ± 0.43 mg/mL | – | – | – | – | GI50 RPE normal cell line ([12]; MTT, 24 h incubation): 1.90 µg/mL; IC50 RPE normal cell line ([12]; MTT, 24 h incubation): 83.81 µg/mL; Tyrosinase IC50 (tyrosinase): >1000 µg/mL; α-Amylase IC50 (α-amylase): >1000 µg/mL; GI50 HeLa cell line ([13]; MTT, 24 h incubation): 2.23 µg/mL; IC50 HeLa cell line ([13]; MTT, 24 h incubation): 104.49 µg/mL
3 | O=C(c1cc(O)cc(O)c1)C(O)c1ccccc1 (stereo not shown) [Compound 3, 2-Hydroxy-1-(3,5-dihydroxyphenyl)-2-phenylethanone] | 90.00 ± 6.8 μg/mL trolox/gram DW | 1111 ± 47.9 μg/mL trolox/gram DW | 812.10 µg/mL | 8.72 ± 0.26 mg/mL | 592 µM | 1630 µM | 103 µg/mL (≈ 422 µM) | – | MIC [1]: 207 µg/mL (≈ 848 µM); MIC (Bacillus cereus Roma709; ROMA709, read-out: MIC Bc): 207 µg/mL (≈ 848 µM); MIC [2]: 820 µg/mL (≈ 3360 µM); MIC [3]: 414 µg/mL (≈ 1700 µM); MIC [5]: 414 µg/mL (≈ 1700 µM); MIC ([6]; ATCC25923, read-out: MIC Sa): 207 µg/mL (≈ 848 µM); MIC [8, 18]: 820 µg/mL (≈ 3360 µM); MIC [10]: 1660 µg/mL (≈ 6780 µM)
4 | O=C(C(=O)c1cccc(O)c1)c1ccccc1 [Compound 8, 1-(3-Hydroxyphenyl)-2-phenylethane-1,2-dione] | 1095.00 ± 18.1 μg/mL trolox/gram DW | 1678 ± 64.6 μg/mL trolox/gram DW | >1000 µg/mL | 13.56 ± 1.2 mg/mL | > 4420 µM | > 4420 µM | 9 to 18 µg/mL (≈ 39.8 to 79.6 µM) | – | MIC [1]: 11 µg/mL (≈ 48.6 µM); MIC (Bacillus cereus Roma709; ROMA709, Gram (+), Mueller-Hinton broth, 18-24 h, 36 °C, read-out: MIC Bc): 11 µg/mL (≈ 48.6 µM); MIC [2]: 21 µg/mL (≈ 92.8 µM); MIC [3]: 41 µg/mL (≈ 181 µM); MIC [5]: 21 µg/mL (≈ 92.8 µM); MIC ([6]; ATCC25923, Gram (+), Mueller-Hinton broth, 18-24 h, 36 °C, read-out: MIC Sa): 11 µg/mL (≈ 48.6 µM); MIC ([8]; ATCC25922, read-out: MIC Ec): 167 µg/mL (≈ 738 µM); MIC Ms [9]: 11 µg/mL (≈ 48.6 µM); MIC [10]: 167 µg/mL (≈ 738 µM)
5 | O=C(C(=O)c1cccc(OC2O[C@H](CO)[C@@H](O)[C@H](O)[C@H]2O)c1)c1ccccc1 (stereo partly drawn) [Compound 21, 1-(3-O-β -D-Glucopyranosylphenyl)-2-phenylethane-1,2-dione] | 109.94 ± 19.42 μg/mL trolox/gram DW | 1981.25 ± 28.33 μg/mL trolox/gram DW | >1000 µg/mL | 36.94 ± 1.71 mg/mL | > 2570 µM | > 2570 µM | – | 12 to 27 µg/mL (≈ 30.9 to 69.5 µM) | MIC [14]: 12 to 27 µg/mL (≈ 30.9 to 69.5 µM)
6 | O=C(C(=O)c1ccc(OC2O[C@H](CO)[C@@H](O)[C@H](O)[C@H]2O)cc1)c1ccccc1 (stereo partly drawn) [Compound 22, 1-(4-O-β -D-Glucopyranosylphenyl)-2-phenylethane-1,2-dione] | 248.97 ± 34.06 μg/mL trolox/gram DW | 1845.42 ± 41.36 μg/mL trolox/gram DW | 212.24 µg/mL | 47.54 ± 1.05 mg/mL | 1360 µM | 342 µM | – | 12 to 27 µg/mL (≈ 30.9 to 69.5 µM) | MIC [14]: 12 to 27 µg/mL (≈ 30.9 to 69.5 µM)
7 | O=C(C(=O)c1cccc(OC2O[C@H](CO)[C@@H](O)[C@H](O)[C@H]2O)c1)c1ccc(O)cc1 (stereo partly drawn) [Compound 25, 1-(3-O-β -D-Glucopyranosylphenyl)-2-(4-hydroxyphenyl)ethane-1,2-dione] | 147.54 ± 25.04 μg/mL trolox/gram DW | 2570.42 ± 25.01 μg/mL trolox/gram DW | >1000 µg/mL | 26.33 ± 0.39 mg/mL | 331 µM | 562 µM | 8 to 15 µg/mL (≈ 19.8 to 37.1 µM) | 8 to 15 µg/mL (≈ 19.8 to 37.1 µM) | GI50 ([12]; Homo sapiens, 24 h, read-out: GI50 RPE normal cell line): 3.38 µg/mL (≈ 8.36 µM); IC50 ([12]; Homo sapiens, 24 h, read-out: IC50 RPE normal cell line): 102 µg/mL (≈ 252 µM); MIC [8, 18]: 8 to 15 µg/mL (≈ 19.8 to 37.1 µM); GI50 ([13]; Homo sapiens, HeLa, 24 h, read-out: GI50 HeLa cell line): 2.21 µg/mL (≈ 5.47 µM); IC50 ([13]; Homo sapiens, HeLa, 24 h, read-out: IC50 HeLa cell line): 81.5 µg/mL (≈ 202 µM)
